Assay [1] has as its target T1, FK-506 binding protein (FKBP) (Homo sapiens, UniProt P62942). Kind of assay: Inhibition of PPIase (rotamase) enzyme activity of FKBP (apparent Ki). The format is biochemical. The conditions noted are these: substrate N-succinylAla-Ala-Pro-Phe-p-nitroanilide, chymotrypsin-coupled. An excerpt: The inhibition of the PPIase (rotamase) enzyme activity of the FKBP (apparent "Ki" values) can also be measured according to the methods described by either Harding, M. W. et al., Nature 341:758-760 (1989) or Siekierka, J. J. et al., Nature 341:755-757 (1989). The cis-trans isomerization of the proline-alanine peptide bond in a model substrate, N-succinylAla-Ala-Pro-Phe-p-nitroanilide, is monitored spectrophotometrically in a coupled assay with chymotrypsin, which releases 4-nitroanilide from the trans form of the substrate. Fischer, G. et al., Nature 337:476-478 (1989). The inhibitory effect of the addition of different concentrations of inhibitor on the extent of the reaction is determined, and analysis of the change in first order rate constant as a function of inhibitor concentration yields an estimate of the apparent Ki value.

In assay [2] the target is T1, FK-506 binding protein (FKBP). Kind of assay: Competitive binding to FKBP against [3H]dihydro-FK-506 (apparent Kd). Conditions: competition with [3H]dihydro-FK-506.
The subject of assay [3] is PBLs stimulated with LB human viral transformed B lymphoblastoid cells. Nature of the assay: MLR bioassay LB: inhibition of proliferation in mixed lymphocyte reaction. The conditions noted are these: Lymphoblastoid cell, pulsed on day 6, harvested 24 h later. The format is cell-based. How it is done:
(§1) LB and JVMhuman viraltransformed B lymphoblastoid cell lines stimulated t
(§2) proliferate in a mixed lymphocyte reaction (MLR). The compounds are
(§3) evaluated on their ability to inhibit this proliferation.
(§4) Fresh peripheral blood lymphocytes (PBLs) from LeukoPak cells or whole blood from random normal blood donors (tested HIV-negative and hepatitis negative) are isolated and separated by density centrifugation over Histopaque 1077 (Sigma Chemical Co., St. Louis, Mo.). The murine CTLL cytotoxic T cell line and the human Jurkat T cell line are from ATCC (CTLL-2 ATCC TIB214, JURKAT CLONE E6-1 ATCC TIBl52). The human allogeneic B cell lines used for activation of the fresh PBLs are EBV-transformed lymphocytes from normal healthy adult donors with two completely different HLAhaplotypes. All cell lines were routinely tested for the presence of Mycolasma contamination using the GibcoMycotect test kit and are Mycolasma-free. Culture medium consksts of RPMI 1640 (Gibco, Grand Island, N.Y.) containing penicillin (50 U/ml) and streptomycin (50 μg/ml), L-glutamine 2 mM, 2 mercaptoethanol (5×10^-5), 10% heat-inactivated FCS and 10 mM HEPES.
(§5) All chemical stocks were dissolved in DMSO.
(§6) MLR Bioassays ("LB" and "JVM")
(§7) Antigen activated proliferation of PBLs in a primary mixed lymphocyte reaction was assessed in the presence or absence of different concentrations of tested compounds and control drugs. 5×10^4 fresh PBLs were stimulated with 5×10^3 of Mitomycin C treated-allogeneic EBV-transformed β-lymphoglastoid cells, IB and JVM, in a final volume of 200 μl per well in 96-well round-bottomed plates (Mishell, B. B. and S. M. Shiigi, Selected Methods in Cellular Immunology W. H. Freeman and Co., San Francisco, Calif. (1980); Nelson, P. A. et al., Transplantation 50:286 (1990)). Cultures were pulsed on day 6, harvested 24 h later and counted as in previous section.

Assay [4] deals with human peripheral blood lymphocytes. Kind of assay: Mitogenesis assay PMA: inhibition of proliferation of human PBLs. The format is cell-based. Conditions: Lymphocyte, PMA (10 ng/ml) plus ionomycin (250 ng/ml), 48 h incubation. How it is done: (§8) PMA and OKT3mitogens used to stimulate proliferation of human peripheral
(§9) blood lymphocytes (PBC). Compounds are evaluated on their ability to
as §4, §5
(§10) Mitogenesis Assays ("PMA" and "OKT3")
(§11) After 48 h incubation (37° C., 5% CO2), cells were pulsed with 1 μCi of ^3 H-thymidine, harvested 24 h later with a Tom Tek cell harvester, and counted in LKB β-scintillation counter.

Assay [5] deals with PBLs stimulated with JVM human viral transformed B lymphoblastoid cells. Nature of the assay: MLR bioassay JVM: inhibition of proliferation in mixed lymphocyte reaction. The format is cell-based. The conditions noted are these: Lymphoblastoid cell, pulsed on day 6, harvested 24 h later. As to the method:
as §1, §2, §3, §4, §5, §6, §7

The test system of assay [6] is human peripheral blood lymphocytes. Kind of assay: Mitogenesis assay OKT3: inhibition of proliferation of human PBLs. The format is cell-based. Conditions: Lymphocyte, OKT3 (10^-4 dilution final), 48 h incubation. As to the method: as §8, §9, §4, §5, §10, §11

As a reminder, the IC50 is the concentration that inhibits the measured activity by half.

T1 sequence (P62942 whole entry): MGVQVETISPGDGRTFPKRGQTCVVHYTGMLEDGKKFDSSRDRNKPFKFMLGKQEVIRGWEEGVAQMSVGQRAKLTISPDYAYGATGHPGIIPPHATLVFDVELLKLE

In the case of `COC(=O)C(=O)N(C)[C@H](C(=O)OCc1ccccc1)C(C)C` [Compound 126], the Ki in assay [1] is 170 µM. In addition, the Kd in assay [2] is over 200 µM.
Turning to `COc1cccc(C(=O)C(=O)N2CCC[C@H]2C(=O)OCc2ccccc2)c1` [Compound 42], in assay [1], the Ki is 5 µM. Also, in assay [2], the Kd came to 80 µM.
Taken in the same sequence, the figures for `CCN(C(=O)C(=O)OC)[C@@H](C)C(=O)OC(C)(C)C` [Compound 128] were over 400 µM and over 500 µM.
On the same counts, the results for `CC(C)(C)/C=C/C(=O)C(=O)N1CCCC[C@H]1C(=O)OCc1ccccc1` [Compound 54] are 9 µM and 3 µM.
On to `COc1ccc(/C=C/C(=O)N2CCC[C@H]2C(=O)OCc2ccccc2)cc1` [Compound 111], for which the Ki in assay [1] amounted to 6 µM. In addition, the Kd in assay [2] is over 30 µM.
With `COC(=O)C(=O)N1CCCC[C@H]1C(=O)OCCC1CCCCC1` [Compound 32], the Ki in assay [1] was 45 µM. The Kd in assay [2] was over 40 µM.
As for `COC(=O)C(=O)N1CCCC[C@H]1C(=O)OC/C(C)=C/c1ccc(OC)cc1` [Compound 36], in assay [1], the Ki was 40 µM. Besides, in assay [2], the Kd is over 30 µM.
Taken in the same sequence, the figures for `O=C(C(=O)N1CCCC[C@H]1C(=O)OCc1ccccc1)c1c[nH]c2ccccc12` [Compound 21] were 25 µM and 20 µM.
For the compound `O=C(C(=O)N1CCC[C@H]1C(=O)OCc1ccccc1)c1ccccc1` [Compound 2], the Ki in assay [1] stood at 25 µM. Besides, the Kd in assay [2] was over 5 µM.
Regarding `COc1ccc(C(=O)C(=O)N2CCCC[C@H]2C(=O)OCc2ccccc2)cc1` [Compound 10], the Ki in assay [1] worked out at 5 µM. The Kd in assay [2] turned out to be 5 µM.
For the compound `O=C(OCc1ccccc1)[C@@H]1CCCCN1C(=O)/C=C/c1c[nH]c2ccccc12` [Compound 120], in assay [1], the Ki is over 60 µM. Moreover, the Kd in assay [2] is over 8 µM.
On to `O=C(OCc1ccccc1)[C@@H]1CCCCN1C(=O)/C=C/c1ccc2c(c1)OCO2` [Compound 110], for which the Ki in assay [1] was found to be 3 µM. For the same compound, in assay [2], the Kd was over 4 µM.
Taken in the same sequence, the figures for `COc1ccc(/C=C/C(=O)N2CCCC[C@H]2C(=O)OCc2ccccc2)cc1` [Compound 112, (S)-Benzyl N-(4-Methoxycinnamoyl)pipecolate] were 4 µM and over 8 µM.
On the same counts, the results for `O=C(C(=O)N1CCCC[C@H]1C(=O)Oc1ccc2ccccc2c1)c1ccccc1` [Compound 6] are 7 µM and 1 µM.
Taken in the same sequence, the figures for `COc1cc(OC)cc(C(=O)C(=O)N2CCCC[C@H]2C(=O)OCc2ccccc2)c1` [Compound 11] were 2 µM and 0.6 µM.
Consider `O=C(C(=O)N1CCCC[C@H]1C(=O)OCc1ccccc1)c1ccco1` [Compound 20, (S)-Benzyl N-(2-furylglyoxyl)pipecolate], for which the Kd in assay [2] is over 12 µM.
Regarding `O=C(C(=O)N1CCCC[C@H]1C(=O)OCc1ccccc1)c1ccc(F)cc1` [Compound 14], the Ki in assay [1] is 4 µM. Besides, the Kd in assay [2] stood at 10 µM.
In the case of `COC(=O)C(=O)N1CCCC[C@H]1C(=O)OCc1ccccc1` [Compound 31], in assay [2], the Kd was over 50 µM.
As for `CC(C)(C)OC(=O)[C@@H]1CCCN1C(=O)C(=O)c1ccco1` [Compound 19], in assay [1], the Ki turned out to be 200 µM. Further, the Kd in assay [2] was over 500 µM.
Taken in the same sequence, the figures for `O=C(OCc1ccccc1)[C@@H]1CCCN1C(=O)/C=C/c1ccc2c(c1)OCO2` [Compound 109, (S)-3-(3,4-Methylenedioxyphenyl)-prop-2-enoylproline benzyl ester] were 3 µM and over 15 µM.
Taken in the same sequence, the figures for `C[C@@H](OC(=O)[C@@H]1CCCCN1C(=O)C(=O)c1ccccc1)c1ccccc1` [Compound 51] were 1.5 µM and 1 µM.
With `COc1ccc(/C=C/C(=O)N(C)[C@@H](C)C(=O)OCc2ccccc2)cc1` [Compound 129, (S)-N-3-(4-methoxyphenyl)-prop-2-enoyl-N-methylalanine benzyl ester], in assay [1], the Ki worked out at 80 µM. In assay [2], the Kd was over 150 µM.
Taken in the same sequence, the figures for `CCC(=O)C(=O)N1CCC[C@H]1C(=O)OCc1ccccc1` [Compound 41] were 400 µM and over 300 µM.
As to `O=C(OCc1ccccc1)[C@@H]1CCCCN1C(=O)C(=O)C1(O)CCCCO1` (stereo partly drawn) [Compound 50], the Ki in assay [1] is 12 µM. For the same compound, in assay [2], the Kd came out at 0.35 µM.
Taken in the same sequence, the figures for `O=C(Cc1ccccc1[N+](=O)[O-])C(=O)N1CCC[C@H]1C(=O)OCc1ccccc1` [Compound 27] were 26 µM and over 25 µM.
As for `COC(=O)C(=O)N1CCCC[C@H]1C(=O)OCCCC1CCCCC1` [Compound 33], in assay [2], the Kd is 12 µM.
On to `CC(C)(C)c1ccc(C(=O)C(=O)N2CCCC[C@H]2C(=O)OCCCCc2ccccc2)cc1` [Compound 97], for which the Ki in assay [1] stood at 0.6 µM. Also, the IC50 in assay [3], in assay [4], in assay [5] and in assay [6] was over 10 µM in each case.
In the case of `CCCCOc1cccc(C(=O)C(=O)N2CCCC[C@H]2C(=O)OCCCc2ccccc2)c1` [Compound 92], the Ki in assay [1] is 1.4 µM. Also, the IC50 in assay [3] was over 10 µM; in assay [4] it was 9 µM; in assay [5] it was over 10 µM; in assay [6] it was over 10 µM.
For `COc1cc(C(=O)C(=O)N2CCCC[C@H]2C(=O)OCC=CCc2ccccc2)cc(OC)c1OC` [Compound 86], the Ki in assay [1] came out at 0.8 µM. The IC50 is over 10 µM in assay [3], 9 µM in assay [4], over 10 µM in assay [5] and over 10 µM in assay [6].
`CC(C)Oc1cccc(C(=O)C(=O)N2CCCC[C@H]2C(=O)OCc2ccccc2)c1` [Compound 66]: the Ki in assay [1] was determined as 0.5 µM. The IC50 in assay [3], in assay [4], in assay [5] and in assay [6] was over 10 µM each time.
In the case of `O=C(C(=O)N1CCCC[C@H]1C(=O)OCCCCCCc1ccccc1)c1ccccc1` [Compound 69], the Ki in assay [1] was 0.5 µM. Also, the half-maximal inhibitory concentration (IC50) in assay [3] was over 10 µM; in assay [4] it was 6.1 µM; in assay [5], over 10 µM; in assay [6], over 10 µM.
`CCOc1cccc(C(=O)C(=O)N2CCCC[C@H]2C(=O)OCc2ccccc2)c1` [Compound 60]: the Ki in assay [1] was determined as 0.56 µM. In addition, the IC50 in assay [3], in assay [4], in assay [5] and in assay [6] was over 10 µM in each case.
For `CCCCOc1cccc(C(=O)C(=O)N2CCCC[C@H]2C(=O)OCc2ccccc2)c1` [Compound 75], in assay [1], the Ki stood at 0.36 µM. Besides, the 50% inhibitory concentration (IC50) in assay [3] is 9 µM; in assay [4] it was 8 µM; in assay [5] it was over 10 µM; in assay [6] it was over 10 µM.
For the compound `CC(C)CC(=O)C(=O)N1CCCC[C@H]1C(=O)OCc1ccccc1` [Compound 7], in assay [1], the Ki stood at 0.9 µM. For the same compound, the IC50 in assay [3], in assay [4], in assay [5] and in assay [6] was over 10 µM in each case.
Consider `COc1ccc(C(=O)C(=O)N2CCCC[C@H]2C(=O)OCCCCc2ccccc2)cc1C1CCCCC1` [Compound 102], for which the Ki in assay [1] came out at 14 µM. In addition, the IC50 is 10 µM in assay [3], over 10 µM in assay [4], 10 µM in assay [5] and over 10 µM in assay [6].
`COc1cc(C(=O)C(=O)N2CCCC[C@H]2C(=O)OCCCn2cnc3cncnc32)cc(OC)c1OC` [Compound 107]: in assay [1], the Ki stood at 0.13 µM. In addition, the IC50 was over 10 µM in assay [3], 6.5 µM in assay [4], over 10 µM in assay [5] and over 10 µM in assay [6].

Values taken from patent publication US5516797A, “Immunosuppressive compounds” (Vertex Pharmaceuticals, Incorporated, priority 1994, dated 1996).
